Structures can show the parent of a compound that is named as a salt. Where two headings read alike, the source gives them in different places.

Test [1] deals with neuronal nicotinic acetylcholine receptors. As to the kind of experiment: [3H]-cytisine ligand-receptor binding assay (crude synaptic membranes from whole rat brain). The note with it: for binding to the nicotinic acetylcholine receptor (in words): preferred compounds. Here is the method:
For the purpose of identifying compounds as nicotinic acetylcholinergic agents which are capable of interacting with neuronal nicotinic acetylcholine receptors in the brain, a ligand-receptor binding assay was carried out as the initial screen. Compounds of the present invention were effective at interacting with neuronal nicotinic acetylcholine receptors as assayed for their ability to displace radioligand from neuronal nicotinic acetylcholine receptors labeled with [^3 H]-cytisine ([^3 H]-CYT).
A. Protocol For Determination of Nicotinic Acetylcholine Receptor Binding Potencies of Ligands
Binding of [^3 H]-CYT to nicotinic acetylcholine receptors was accomplished using crude synaptic membrane preparations from whole rat brain (Pabreza et al., Molecular Pharmacol., 1990, 39:9). Washed membranes were stored at -80° C. prior to use. Frozen aliquots were slowly thawed and resuspended in 20 volumes of buffer (containing: 120 mM NaCl, 5 mM KCl, 2 mM MgCl2, 2 mM CaCl2 and 50 mM Tris-Cl, pH 7.4 @4° C.). After centrifuging at 20,000×g for 15 minutes, the pellets were resuspended in 30 volumes of buffer. Homogenate (containing 125-150 μg protein) was added to triplicate tubes containing concentrations of test compound and [^3 H]-CYT (1.25 nM) in a final volume of 500 μL. Samples were incubated for 60 minutes at 4° C., then rapidly filtered through Whatman GF/B filters presoaked in 0.5% polyethylimine using 3×4 mL of ice-cold buffer. The filters were counted in 4 mL of Ecolume® (ICN). Nonspecific binding was determined in the presence of 10 μM (-)-nicotine and values were expressed as a percentage of total binding.

Test [2] concerns neuronal nicotinic acetylcholine receptors in IMR-32 cells. As to the kind of experiment: 86Rb+ efflux assay in IMR-32 neuroblastoma cells. The format is cell-based, human. The conditions noted are these: for IMR-32 % max: maximal response, percent relative to 100 μM (S)-nicotine. As for the experimental part: B. Protocols for the Determination of Functional Effects of Nicotinic Acetylcholine Receptor Ligands on Synaptic Transmission
Experimental cells were seeded at a density of 500,000 cells/mL into a 24-well tissue culture dish. Plated cells were allowed to proliferate for at least 48 hours before loading with 2 μCi/mL of ^86 Rb^+ (35 Ci/mmol) overnigh at 37° C.

Setting [3] is: Table 2, [3H]-cytisine binding, read-out: Binding.
Setting [4] is: Table 1, [3H]-cytisine 1.25 nM, 4° C., 60 min, Ki by Cheng and Prusoff, read-out: [^3 H]-Cyt Binding.

`CN1CCC[C@H]1c1cc2cccnc2o1` [Example 134, 2-(1-methyl-2-(S)-pyrrolidinyl)furo[2,3-b]pyidine hydrochloride]: the Ki in test [1] (setting [3]) came out at 6.9 nM.
As to `c1cnc2cc([C@H]3CC[C@H]4CCCN43)oc2c1` [Example 18, endo-2-(Hexahydro-1H-3-(R)-pyrrolizinyl)furo[3,2-b]pyridine dihydrochloride], the “IMR-32 % Inhibition @ (30 μM)” value in test [2] (Table 1, inhibition of efflux elicited by 100 μM (S)-nicotine, 30 μM) was 55%. Further, the Ki in test [1] (setting [4]) turned out to be 38 nM.
On to `c1cnc2cc(CN3CCCC3)oc2c1` [Example 22, 1-Pyrrolidinylmethyl-(2-furo[3,2-b]pyridine)], for which, in test [1] (setting [4]), the Ki was found to be 113 nM.
`Cc1ccc2sc(C34CCCN3CCC4)cc2n1` [Example 27, dihydrochloride]: the Ki in test [1] (setting [4]) came to 27 nM.
The same measure, in the same setting: to `CN1CCC[C@@H]1c1cc2nc(Cl)c(Br)cc2o1` [Example 50, 6-bromo-5-chloro-2-(-1-methyl-2(R)-pyrrolidinyl)furo[3,2-b]pyridine hydrochloride] belongs 46 nM.
In the case of `c1cnc2cc([C@@H]3CC[C@H]4CCCN43)oc2c1` [Example 19, exo-2-(Hexahydro-1H-3-(S)-pyrrolizinyl)furo[3,2-b]pyridine dihydrochloride], in test [1] (setting [4]), the Ki amounted to 3950 nM.
Regarding “5-chloro-2-(1-methyl-2-(S)-pyrrolidinyl)-6-(3-pyridyl)furo[3,2-b]pyridine hydrochloride [Example 59]”, in test [1] (setting [3]), the Ki was found to be 672 nM.
As for `CN1CCC[C@@H]1c1cc2nc(Cl)c(-c3ccccc3)cc2o1` [Example 56, 5-chloro-2-(1-methyl-2-(R)-pyrrolidinyl)-6-phenyl furo[3,2-b]pyridine hydrochloride], the Ki in test [1] (setting [3]) was 12.9 nM.
Regarding `CN1CCC[C@@H]1c1cc2nc(Cl)ccc2o1` [Example 32, 5-chloro-2-(1-methyl-2-(R)-pyrrolidinyl)-furo[3,2-b]pyridinehydrochloride], the Ki in test [1] (setting [4]) is 54 nM.
Regarding `Cl.Cl.c1cc2cc([C@@H]3CCCN3)oc2cn1` [Example 9, 2-(2-(S)-pyrrolidinyl)furo[2,3-c]pyridine dihydrochloride], in test [2] (Table 1), the IMR-32 % max is given as 83%. Also, in test [1] (setting [4]), the Ki was determined as 250 nM.
Regarding `c1ccc(-c2cnc3cc([C@@H]4CCCN4)oc3c2)cc1` [Example 53, 2-((S)-pyrrolidinyl)-6-phenylfuro[3,2-b]pyridine dihydrochloride], the Ki in test [1] (setting [3]) was 335 nM.
The same measure, in the same setting: to `CN1CCC[C@H]1c1cc2ncc(-c3ccccc3)cc2o1` [Example 54, 2-(1-methyl-2-(S)-pyrrrolidinyl)-6-phenylfuro[3,2-b]pyridinedihydrochloride] belongs 104 nM.
With `Clc1nc2cc([C@H]3CCCN3)oc2cc1C=Cc1ccncc1` [Example 58, 5-chloro-2-(2-(R)-pyrrolidinyl)-6-(2-(4-pyridylethenyl)furo[3,2-b]pyridine hydrochloride], the Ki in test [1] (setting [3]) amounted to 0.31 nM. Moreover, the “binding to the nicotinic acetylcholine receptor (in words)” value in test [1] is recorded as “most potent binders”.
For the compound `c1cnc2cc([C@H]3N[C@@H]4CC[C@H]3C4)oc2c1` [Example 41, 2-((1R,4S)-2-aza-3-(S)-bicyclo[2.2.1]heptyl)-furo[3,2-b]pyridine dihydrochloride], the Ki in test [1] (setting [4]) was 81 nM.
In the case of `Clc1ccc2oc([C@H]3N[C@@H]4CC[C@H]3C4)cc2n1` [Example 43, 2-((1R,4S)-2-aza-3-(S)-bicyclo[2.2.1]heptyl)-5-chloro-furo[3,2-b]pyridine dihydrochloride], the Ki in test [1] (setting [4]) is 453 nM.
On the same count and under the same terms, with `CN1[C@@H]2CC[C@@H](C2)[C@H]1c1cc2nc(Cl)ccc2o1` [Example 44, 2-((1R,4t)-2-aza-3-(S)-bicyclo[2.2.1]heptyl)-5-chloro-2-methylfuro[3,2-b]pyridine dihydrochloride] the figure was 5 nM.
`Cl.Nc1cccc(-c2cc3oc([C@H]4CCCN4)cc3nc2Cl)c1` [Example 57, 6-(3-aminophenyl)-5-chloro-2-(2-(R)-pyrrolidinyl)furo[3,2-b]pyridine hydrochloride] showed an IMR-32 % max in test [2] (Table 2) of 22%. Also, in test [1] (setting [3]), the Ki turned out to be 0.83 nM.
`Clc1cc2oc([C@@H]3CCCN3)cc2nc1Cl` [Example 25, 5,6-Dichloro-2-(2-(S)-pyrrolidinyl)furo [3,2-b]pyridine hydrochloride]: the Ki in test [1] (setting [4]) turned out to be 103 nM.
On the same count and under the same terms, with `Clc1ccc2oc([C@@H]3CCCN3)cc2n1` [Example 11, 5-chloro-2-(2-(S)-pyrrolidinyl)-furo[3,2-b]pyridine hydrochloride] the figure was 58 nM; with `Clc1cnc2oc([C@@H]3CCCN3)cc2c1` [Example 13, 5-chloro-2-(2-(S)-pyrrolidinyl)-furo[2,3-b]pyridine hydrochloride], 4440 nM.
On the same count and under the same terms, to `Cc1ccc2oc([C@H]3CCCN3C)cc2n1` [Example 30, 5-methyl-2-(1-methyl-2-(R)-pyrrolidinyl)-furo[3,2-b]pyridinedihydrochloride] belongs 101 nM.
Regarding `CN1CCC[C@H]1c1cc2nccc(Cl)c2o1` [Example 51, 7-chloro-2-(1-methyl-2-(S)-pyrrolidinyl)furo[3,2-b]pyridine hydrochloride], the Ki in test [1] (setting [4]) is 443 nM.
On the same count and under the same terms, with `Cc1ccc2oc([C@@H]3CCCN3)cc2n1` [Example 5, 5-methyl-2-(2-(S)-pyrrolidinyl)furo[3,2-b]pyridine dihydrochloride] the figure was 355 nM.
Take `Clc1cc2oc([C@H]3N[C@@H]4CC[C@H]3C4)cc2nc1Cl` [Example 45, 2-((1R,4S)-2-aza-3-(S)-bicyclo[2.2.1]heptyl)-5,6-dichlorofuro[3,2-b]pyridine dihydrochloride]: the Ki in test [1] (setting [4]) is 205 nM.
Turning to `CN1CCC[C@H]1c1cc2cnccc2o1` [Example 37, 2-(1-methyl-2-(S)-pyrrolidinyl)furo[3,2-c]pyridine dihydrochloride], in test [1] (setting [4]), the Ki worked out at 1760 nM.
Consider `c1cnc2oc([C@@H]3CCCN3)cc2c1` [Example 36, 2-(2-(S)-pyrrolidinyl)furo[2,3-b]pyridine hydrochloride], for which the Ki in test [1] (setting [4]) was 611 nM.
The same measure, in the same setting: with `CN1CCC[C@@H]1c1cc2nc(Cl)c(Cl)cc2o1` [Example 40, 5,6-Dichloro-2-(1-methyl-2-(R)-pyrrolidinyl)furo[3,2-b]pyridine hydrochloride] the figure was 32 nM; with `c1cnc2cc([C@H]3CC[C@@H]4CCCN43)oc2c1` [Example 20, exo-2-(Hexahydro-1H-3-(R)-pyrrolizinyl)furo[3,2-b]pyridine dihydrochloride], 397 nM.
The same measure, in the same setting: with `CN1CCC[C@H]1c1cc2ncc(Br)cc2o1` [Example 47, 6-bromo-2-(1-methyl-2-(S)-pyrrolidinyl)furo[3,2-b]pyridine dihydrochloride] the figure was 38 nM; with `Brc1cnc2cc([C@@H]3CCCN3)oc2c1` [Example 46, 6-bromo-2-(2-(S)-pyrrolidinyl)furo[3,2-b]pyridine dihydrochloride], 468 nM.
For `CN1CCC[C@H]1c1cc2ccncc2o1` [Example 10, 2-(1-methyl-2-(S)-pyrrolidinyl)furo[2,3-c]pyridine dihydrochloride], the Ki in test [1] (setting [4]) worked out at 207 nM.
The same measure, in the same setting: with `CN1CCC[C@H]1c1cc2cc(Cl)cnc2o1` [Example 14, 5-chloro-2-(1-methyl-2-(S)-pyrrolidinyl)-furo[2,3-b]pyridinedihydrochloride] the figure was 181 nM.
With `Clc1ccc2oc(C34CCCN3CCC4)cc2n1` [Example 23, 5-Chloro-2-(hexahydro-1H-7a-pyrrolizinyl)furo[3,2-b]pyridinehydrochloride], the Ki in test [1] (setting [4]) is 0.62 nM. Besides, in test [1], the “binding to the nicotinic acetylcholine receptor (in words)” value was “most potent binders”.
On to `Clc1ccc2oc([C@H]3C[C@@H]4CC[C@H]3N4)cc2n1` (relative stereo) [Example 135, (±)-2-(7-aza-2-exo-bicyclo[2.2.1]heptyl)-5-chlorofuro[3,2-b]pyridine hydrochloride], for which the Ki in test [1] (setting [3]) came to 3.2 nM.
The same measure, in the same setting: to `Fc1ccc2oc([C@H]3C[C@@H]4CC[C@H]3N4)cc2n1` (relative stereo) [Example 136, (±)-2-(7-aza-2-exo-bicyclo[2.2.1]heptyl)-5-fluorofuro[3,2-b]pyridine hydrochloride] belongs 2.4 nM.
With `c1cc2cc(C34CCCN3CCC4)oc2cn1` [Example 17, 2-(Hexahydro-1H-7a-pyrrolizinyl)furo[2,3-c]pyridine dihydrochloride], the Ki in test [1] (setting [4]) is 88 nM.
As for `Clc1cnc2cc([C@@H]3CCCN3)oc2c1` [Example 7, 6-chloro-2-(2-(S)-pyrrolidinyl)-furo[3,2-b]pyridine dihydrochloride], in test [1] (setting [4]), the Ki is 878 nM.
